Values joined by “and” are separate entries in the source; they are usually repeats but may differ in a detail not shown here. Equal entries are not always repeated. Where two headings read alike, the source gives them in different places.
What was measured:
Sphaerotheca fuliginea = experiment: Sphaerotheca test (cucumbers)/preventive; format: in vivo; details: Podosphaera fuliginea, 168 h, read-out: Efficacy in % found; for pest or weed control at 0.25 ppm: 0.25 ppm a.i.; for pest or weed control at 0.5 ppm: 0.5 ppm a.i.
Fusarium graminearum = format: in vivo
Leptosphaeria nodorum = Leptosphaeria nodorum test (wheat)/preventive; format: in vivo; details: for pest or weed control at 10 ppm / pest or weed control at 40 ppm: Parastagonospora nodorum, 192 h, read-out: Efficacy in % found; for pest or weed control at 40 ppm: application rate 40 ppm
Septoria tritici = experiment: Septoria tritici-test (wheat)/preventive; format: in vivo; details: Zymoseptoria tritici, 504 h, preventive, evaluated 21 days after inoculation, read-out: Efficacy in % found; for pest or weed control at 10 ppm: application rate 10 ppm a.i.
Puccinia triticina = experiment: Puccinia triticina-test (wheat)/preventive; format: in vivo; details: preventive, evaluated 8 days after inoculation; for pest or weed control at 10 ppm / pest or weed control at 40 ppm: Puccinia triticina, 192 h, read-out: Efficacy in % found; for pest or weed control at 40 ppm: application rate 40 ppm a.i.
Pyrenophora teres = experiment: Pyrenophora teres-test (barley)/preventive; format: in vivo; details: application rate 10 ppm a.i., preventive, evaluated 8 days after inoculation
Venturia inaequalis = experiment: Venturia test (apples)/preventive; details: for pest or weed control at 0.5 ppm: 0.5 ppm a.i.
Experimental: After the spray coating has dried on, the plants are inoculated with an aqueous conidia suspension of the causal agent of apple scab (Venturia inaequalis) and then remain for 1 day in an incubation cabinet at approximately 20° C. and a relative atmospheric humidity of 100%.
The plants are then placed in a greenhouse at approximately 21° C. and a relative atmospheric humidity of approximately 90%.
The test is evaluated 10 days after the inoculation.

Phytophthora infestans = experiment: whole plant or invertebrate; format: in vivo; details: Phytophthora infestans, 72 h, read-out: Efficacy in % found
Alternaria solani = experiment: Alternaria test (tomatoes)/preventive; format: in vivo; details: Alternaria solani, 72 h, read-out: Efficacy in % found
[1] = test system: Blumeria graminis f.sp. hordei; experiment: Blumeria test (barley)/preventive; format: in vivo; details: Blumeria graminis, 168 h, read-out: Efficacy in % found; for pest or weed control at 10 ppm: 10 ppm a.i.
Botrytis cinerea = experiment: Botrytis test (beans)/preventive
Experimental: After the spray coating has dried on, 2 small pieces of agar covered with growth of Botrytis cinerea are placed on each leaf. The inoculated plants are placed in a darkened chamber at 20° C. and a relative atmospheric humidity of 100%. 2 days after the inoculation, the size of the lesions on the leaves is evaluated.

[2] = test system: Fusarium nivale (var. majus); experiment: Fusarium nivale (var. majus)-test (wheat)/preventive; details: Microdochium nivale, in Triticum aestivum, 120 h; for pest or weed control at 10 ppm: 10 ppm a.i.; for pest or weed control at 40 ppm: 40 ppm a.i.
Experimental: After the spray coating has been dried, the plants are slightly injured by using a sandblast and afterwards they are sprayed with a conidia suspension of Fusarium nivale (var. majus).
The plants are placed in the greenhouse under a translucent incubation cabinet at a temperature of approximately 10° C. and a relative atmospheric humidity of approximately 100%.
The test is evaluated 5 days after the inoculation.

[3] = application rate 10 ppm, wheat, preventive, evaluated 8 days after inoculation
[4] = wheat, preventive, evaluated 8 days after inoculation
[5] = Venturia inaequalis, 240 h, read-out: Efficacy in % found, Table 2b, 0.25 ppm a.i.
[6] = read-out: Efficacy in % found, Table 8e

SMILES | Efficacy in % found (Fusarium graminearum; Table 7a, 10 ppm a.i.) [%] | Efficacy in % found (Fusarium graminearum; Table 7b, 10 ppm a.i.) [%] | pest or weed control at 10 ppm (Leptosphaeria nodorum; [3]) [%] | pest or weed control at 40 ppm (Leptosphaeria nodorum; [4]) [%] | pest or weed control at 10 ppm (Septoria tritici) [%] | Efficacy in % found (Fusarium graminearum; Table 7b, 40 ppm a.i.) [%] | Efficacy in % found (Pyrenophora teres) | pest or weed control at 0.25 ppm (Phytophthora infestans) [%] | pest or weed control at 0.5 ppm (Phytophthora infestans) [%] | pest or weed control at 100 ppm (Phytophthora infestans) [%] | pest or weed control at 0.5 ppm (Alternaria solani; Table 3b) [%] | pest or weed control at 10 ppm (Puccinia triticina; application rate 10 ppm a.i.) [%] | pest or weed control at 40 ppm (Puccinia triticina) [%] | pest or weed control at 0.25 ppm (Venturia inaequalis; [5]) [%] | further results
CON=C(C(=O)OC)c1ccccc1CON=C(C)c1cccc(C(F)(F)F)c1 [B3.22, trifloxystrobin] | 0 | 25 | 40 | 57 | 13 | – | – | – | – | – | – | – | – | – | pest or weed control at 1 ppm (Sphaerotheca fuliginea; Table 4c, 1 ppm a.i.): 21%
CC(C)C1C2CCC1c1c(NC(=O)c3cn(C)nc3C(F)F)cccc12 (stereo not drawn) [B2.11, isopyrazam (syn + anti)] | – | – | – | – | – | 0 | 0% | – | – | – | – | – | – | – | Efficacy in % found (Leptosphaeria nodorum; Table 9b, 10 ppm a.i.): 0%; Efficacy in % found (Puccinia triticina; application rate 10 ppm a.i.): 33%; Efficacy in % found (Venturia inaequalis; Table 2d, 0.25 ppm a.i.): 88%
Cn1nc(C(F)F)c(C(=O)N(Cc2cc(Cl)ccc2C(F)(F)F)C2CC2)c1F [A15, N-[5-chloro-2-(trifluoromethyl)benzyl]-N-cyclopropyl-3-(difluoromethyl)-5-fluoro-1-methyl-1H-pyrazole-4-carboxamide] | – | 0 | – | – | 57 | 0 | 67% | 0 | 0 | 25 | 63 | 44 | 89 | 0 | pest or weed control at 0.25 ppm (Alternaria solani; Table 3b, 0.25 ppm): 59%; pest or weed control at 0.25 ppm (Sphaerotheca fuliginea; Table 4c): 29%; pest or weed control at 10 ppm ([1]; Table 6b): 13%; pest or weed control at 40 ppm ([1]; Table 6b, 40 ppm a.i.): 70%; pest or weed control at 40 ppm ([1]; Table 6c, 40 ppm): 75%; Efficacy in % found (Botrytis cinerea; Table 5a, 2.5 ppm a.i.): 8%; pest or weed control at 0.5 ppm (Venturia inaequalis; Venturia inaequalis, 240 h, read-out: Efficacy in % found, Table 2a): 0%; pest or weed control at 10 ppm ([2]; read-out: Efficacy in % found, Table 8c): 63%
Cn1nc(C(F)F)c(C(=O)N(Cc2c(Cl)cccc2C(F)(F)F)C2CC2)c1F [A17, N-[2-chloro-6-(trifluoromethyl)benzyl]-N-cyclopropyl-3-(difluoromethyl)-5-fluoro-1-methyl-1H-pyrazole-4-carboxamide] | 50 | – | 33 | 67 | – | – | 86% and 89% | 0 | 0 | 30 | 71 | – | 67 | 8 | pest or weed control at 0.5 ppm (Alternaria solani; Table 3c): 32%; pest or weed control at 0.5 ppm (Sphaerotheca fuliginea; Table 4a): 74%; pest or weed control at 0.25 ppm (Sphaerotheca fuliginea; Table 4b): 71%; pest or weed control at 10 ppm ([1]; Table 6a): 95%; pest or weed control at 10 ppm (Leptosphaeria nodorum; Table 9e, 10 ppm a.i.): 29%; pest or weed control at 10 ppm ([2]; read-out: Efficacy in % found, Table 8d): 43%
CC(C)c1ccc(Cl)cc1CN(C(=O)c1c(C(F)F)nn(C)c1F)C1CC1 [A5, N-(5-chloro-2-isopropylbenzyl)-N-cyclopropyl-3-(difluoromethyl)-5-fluoro-1-methyl-1H-pyrazole-4-carboxamide] | – | – | 20 | 60 | – | – | – | – | 0 | – | – | 44 | 94 | – | pest or weed control at 0.5 ppm (Alternaria solani; Table 3e): 6%; pest or weed control at 0.5 ppm (Alternaria solani; Table 3d): 0%; pest or weed control at 0.5 ppm (Sphaerotheca fuliginea; Table 4d): 0%; pest or weed control at 40 ppm ([1]; Table 6f, 40 ppm a.i.): 25%; pest or weed control at 40 ppm (Septoria tritici; application rate 40 ppm a.i.): 93%; Efficacy in % found (Botrytis cinerea; Table 5b, 0.5 ppm a.i.): 16%; Efficacy in % found (Botrytis cinerea; Table 5b, 2 ppm a.i.): 72%; pest or weed control at 0.5 ppm (Venturia inaequalis; Venturia inaequalis, 240 h, read-out: Efficacy in % found, Table 2e): 15%; pest or weed control at 2 ppm (Venturia inaequalis; Venturia inaequalis, 240 h, read-out: Efficacy in % found, Table 2e, 2 ppm a.i.): 57%; pest or weed control at 0.25 ppm (Venturia inaequalis; Venturia inaequalis, 240 h, read-out: Efficacy in % found, Table 2d, 0.25 ppm a.i.): 0%; pest or weed control at 0.5 ppm (Venturia inaequalis; Venturia inaequalis, 240 h, read-out: Efficacy in % found, Table 2d): 0%; pest or weed control at 10 ppm [2, 6]: 0%; pest or weed control at 40 ppm [2, 6]: 0%; pest or weed control at 40 ppm ([2]; read-out: Efficacy in % found, Table 8f): 38%

Source: patent US12642271B2, “Active compound combinations comprising a (thio)carboxamide derivative and a fungicidal compound” (Bayer CropScience Aktiengesellschaft, priority 2011, dated 2026)
